# pIC50: −log10 of the molar value. Where a SMILES comes first, the peptide text is derived from it. Bridges are numbered along the chain shown (N, C = ends). [ ]: non-standard residue; d: D form. The star is where a group is joined. ξ: configuration not given here. Phe(3,4-Cl2) = N[C@@H](Cc1ccc(Cl)c(Cl)c1)C(=O)O; Phe(3-CF3) = N[C@@H](Cc1cccc(C(F)(F)F)c1)C(=O)O; Ala(morpholin-4-yl) = N[C@@H](CN1CCOCC1)C(=O)O; Phe(4-COOH) = N[C@@H](Cc1ccc(C(=O)O)cc1)C(=O)O; Bip = N[C@@H](Cc1ccc(-c2ccccc2)cc1)C(=O)O; Phe(3-Me) = Cc1cccc(C[C@H](N)C(=O)O)c1; NMehPhe = CN[C@@H](CCc1ccccc1)C(=O)O; Val(3-OH) = CC(C)(O)[C@H](N)C(=O)O; hPhe = N[C@@H](CCc1ccccc1)C(=O)O; 4Pal = N[C@@H](Cc1ccncc1)C(=O)O; 3Thi = N[C@@H](Cc1ccsc1)C(=O)O; Cha = N[C@@H](CC1CCCCC1)C(=O)O; Ile(3ξ) = CCC(C)[C@H](N)C(=O)O; dCha = N[C@H](CC1CCCCC1)C(=O)O; Thr(3ξ) = CC(O)[C@H](N)C(=O)O; Carboxymethyl = O=C(O)C*; Orn = NCCC[C@H](N)C(=O)O; Pra = C#CC[C@H](N)C(=O)O; Dab = NCC[C@H](N)C(=O)O; Dap = NC[C@H](N)C(=O)O
# Molecular target: T1, human PD-1 / PD-L1-Ig binding on Jurkat cell line over-expressing human PD-1 (Jurkat-PD-1) (Homo sapiens, UniProt Q15116)
# T1 construct: expressed in transfected cells; host or cells: Jurkat
# Test: Jurkat-PD-1 Cell Binding High-Content Screening Assay (CBA)
# Assay type: cell-based
# Settings: Jurkat-PD-1 cells, PE-labeled PD-L1-Ig 20 nM final; read-out: Jurkat HPD1_PDL1 IC50
# Outline: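 Binding of fluorescent PD-L1-Ig (phycoerythrin linked via the Ig tag, 20 nM final) to PD-1-overexpressing Jurkat cells was imaged after a 2 h, 37° C compound pretreatment and 1 hour ligand incubation.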
# T1 sequence (Q15116 25-288): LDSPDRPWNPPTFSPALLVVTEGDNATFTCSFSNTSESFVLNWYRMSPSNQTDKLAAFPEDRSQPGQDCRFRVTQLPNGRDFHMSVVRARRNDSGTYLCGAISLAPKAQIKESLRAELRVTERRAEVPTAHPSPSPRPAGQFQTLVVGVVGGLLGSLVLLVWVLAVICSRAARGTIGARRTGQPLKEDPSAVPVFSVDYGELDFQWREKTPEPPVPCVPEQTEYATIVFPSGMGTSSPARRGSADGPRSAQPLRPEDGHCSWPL
row,pIC50,SMILES
1,7.75,CC(C)C[C@H]1NC(=O)[C@H](CCCN)NC(=O)[C@H](C(C)C)NC(=O)[C@H](Cc2ccc(-c3ccccc3)cc2)NC(=O)[C@H](C(C)C)NC(=O)[C@H](Cc2c[nH]c3ccccc23)NC(=O)[C@H](CC(=O)O)NC(=O)[C@H](Cc2ccc(OCC(=O)O)cc2)NC(=O)[C@H](C(C)O)NC(=O)CSC[C@@H](C(=O)N[C@@H](CO)C(=O)O)NC(=O)[C@H](C(C)O)NC(=O)[C@H](C(C)C)NC(=O)[C@H](CC2CCCCC2)NC(=O)[C@H](CCN)NC1=O (stereo partly drawn) [Compound 2603] ({CH2CO}-[Thr(3ξ)]Y(Carboxymethyl)DWV[Bip]V[Orn][dL][Dab][Cha]V[Thr(3ξ)]CS-OH; thioether N-14)
2,8.00,CC(C)C[C@H]1NC(=O)[C@H](CCCN)NC(=O)[C@H](C(C)C)NC(=O)[C@H](Cc2ccc(-c3ccccc3)cc2)NC(=O)[C@H](C(C)C)NC(=O)[C@H](Cc2c[nH]c3ccccc23)NC(=O)[C@H](CC(=O)O)NC(=O)[C@H](Cc2ccc(OCC(=O)O)cc2)NC(=O)[C@H](CCc2ccccc2)N(C)C(=O)CSC[C@@H](C(=O)N[C@@H](C)C(N)=O)NC(=O)[C@H](CO)NC(=O)[C@H](C(C)C)NC(=O)[C@H](CC2CCCCC2)NC(=O)[C@H](CCN)NC1=O [Compound 2516] ({CH2CO}-[NMehPhe]Y(Carboxymethyl)DWV[Bip]V[Orn][dL][Dab][Cha]VSCA-NH2; thioether N-14)
3,7.49,CC(C)[C@@H]1NC(=O)[C@H](Cc2c[nH]c3ccccc23)NC(=O)[C@H](CC(=O)O)NC(=O)[C@H](Cc2ccncc2)NC(=O)[C@H](Cc2ccc(OCC(=O)O)cc2)NC(=O)CSC[C@@H](C(=O)N[C@@H](C)C(N)=O)NC(=O)[C@H]([C@@H](C)O)NC(=O)[C@H](C(C)C)NC(=O)[C@H](CC2CCCCC2)NC(=O)[C@H](CCN)NC(=O)[C@@H](CC2CCCCC2)NC(=O)[C@H](CCCN)NC(=O)[C@H](C(C)C)NC(=O)[C@H](Cc2ccc(-c3ccccc3)cc2)NC1=O [Compound 1637] ({CH2CO}-Y(Carboxymethyl)[4Pal]DWV[Bip]V[Orn][dCha][Dab][Cha]VTCA-NH2; thioether N-14)
4,7.60,CC(C)C[C@H]1NC(=O)[C@H](CCCN)NC(=O)[C@H](CCN)NC(=O)[C@H](Cc2ccc(-c3ccccc3)cc2)NC(=O)[C@H](C(C)C)NC(=O)[C@H](Cc2c[nH]c3ccccc23)NC(=O)[C@H](CC(=O)O)NC(=O)[C@H](Cc2ccncc2)NC(=O)[C@H](CN)NC(=O)CSC[C@@H](C(=O)N[C@@H](C)C(N)=O)NC(=O)[C@H]([C@@H](C)O)NC(=O)[C@H](C(C)C)NC(=O)[C@H](CC2CCCCC2)NC(=O)[C@H](CCN)NC1=O [Compound 1387]
5,8.14,CC(C)C[C@@H]1NC(=O)[C@H](CC(N)=O)NC(=O)[C@@H](CC(C)C)NC(=O)[C@H](CN)NC(=O)[C@H](C(C)C)NC(=O)[C@H](Cc2ccc(-c3ccccc3)cc2)NC(=O)[C@H](C(C)C)NC(=O)[C@H](Cc2c[nH]c3ccccc23)NC(=O)[C@H](CC(=O)O)NC(=O)[C@H](Cc2ccc(OCC(=O)O)cc2)NC(=O)[C@H](Cc2ccc(OCC(=O)O)cc2)NC(=O)CSC[C@@H](C(=O)NCC(N)=O)NC(=O)[C@H](CO)NC(=O)[C@H](C(C)C)NC1=O [Compound 1292] ({CH2CO}-Y(Carboxymethyl)Y(Carboxymethyl)DWV[Bip]V[Dap][dL]NLVSCG-NH2; thioether N-14)
6,7.17,"CC(C)C[C@H]1NC(=O)[C@H](CCCN)NC(=O)[C@H](CCC(=O)O)NC(=O)[C@H](Cc2ccc(-c3ccccc3)cc2)NC(=O)[C@H](C(C)C)NC(=O)[C@H](Cc2c[nH]c3ccccc23)NC(=O)[C@H](CC(=O)O)NC(=O)[C@H](Cc2ccc(OCC(=O)O)cc2)NC(=O)[C@H](CN)NC(=O)CSC[C@@H](C(=O)N[C@@H](C)C(N)=O)NC(=O)[C@H]([C@@H](C)O)NC(=O)[C@H](C(C)C)NC(=O)[C@H](Cc2ccc(Cl)c(Cl)c2)NC(=O)[C@H](CCN)NC1=O [Compound 1481] ({CH2CO}-[Dap]Y(Carboxymethyl)DWV[Bip]E[Orn][dL][Dab][Phe(3,4-Cl2)]VTCA-NH2; thioether N-14)"
7,8.19,C#CC[C@H](NC(=O)[C@H](CCN)NC(=O)[C@@H]1CSCC(=O)N[C@@H](CN)C(=O)N[C@@H](Cc2ccc(OCC(=O)O)cc2)C(=O)N[C@@H](CC(=O)O)C(=O)N[C@@H](Cc2cccc(C)c2)C(=O)N[C@@H](Cc2ccc(OCC(=O)O)cc2)C(=O)N[C@@H](Cc2ccc(-c3ccccc3)cc2)C(=O)N[C@@H](Cc2ccc(OCC(=O)O)cc2)C(=O)N[C@@H](CCCN)C(=O)N[C@H](CC(C)C)C(=O)N[C@@H](CCN)C(=O)N[C@@H](CC2CCCCC2)C(=O)N[C@@H](C(C)(C)O)C(=O)N[C@@H](CO)C(=O)N1)C(=O)O [Compound 2316] ({CH2CO}-[Dap]Y(Carboxymethyl)D[Phe(3-Me)]Y(Carboxymethyl)[Bip]Y(Carboxymethyl)[Orn][dL][Dab][Cha][Val(3-OH)]SC[Dab][Pra]-OH; thioether N-14)
8,7.49,CCC(C)[C@@H]1NC(=O)[C@H](Cc2ccc(-c3ccccc3)cc2)NC(=O)[C@H](C(C)C)NC(=O)[C@H](Cc2cccc(C)c2)NC(=O)[C@H](CC(=O)O)NC(=O)[C@H](Cc2ccc(C(=O)O)cc2)NC(=O)[C@H](Cc2ccncc2)NC(=O)CSC[C@@H](C(N)=O)NC(=O)[C@H](CCC(=O)O)NC(=O)[C@H](C(C)C)NC(=O)[C@H](CC2CCCCC2)NC(=O)[C@H](CCN)NC(=O)[C@@H](CC(C)C)NC(=O)[C@H](CCCN)NC1=O (stereo partly drawn) [Compound 2277] ({CH2CO}-[4Pal][Phe(4-COOH)]D[Phe(3-Me)]V[Bip][Ile(3ξ)][Orn][dL][Dab][Cha]VEC-NH2; thioether N-14)
9,7.74,CC(C)C[C@H]1NC(=O)[C@H](CCCN)NC(=O)[C@H](CCCNC(N)=O)NC(=O)[C@H](Cc2ccc(-c3ccccc3)cc2)NC(=O)[C@H](C(C)C)NC(=O)[C@H](Cc2c[nH]c3ccccc23)NC(=O)[C@H](CC(=O)O)NC(=O)[C@H](CCc2ccncc2)NC(=O)[C@H](CN)NC(=O)CSC[C@@H](C(=O)N[C@@H](C)C(N)=O)NC(=O)[C@H]([C@@H](C)O)NC(=O)[C@H](C(C)C)NC(=O)[C@H](CC2CCCCC2)NC(=O)[C@H](CCN)NC1=O [Compound 2104]
10,8.47,CC(C)C[C@H]1NC(=O)[C@H](CCCN)NC(=O)[C@H](Cc2ccc(C(=O)O)cc2)NC(=O)[C@H](Cc2ccc(-c3ccccc3)cc2)NC(=O)[C@H](CCc2ccccc2)NC(=O)[C@H](Cc2cccc(C(F)(F)F)c2)NC(=O)[C@H](CC(=O)O)NC(=O)[C@H](Cc2ccc(C(=O)O)cc2)NC(=O)[C@H](CN2CCOCC2)NC(=O)CSC[C@@H](C(=O)N[C@@H](CCN)C(N)=O)NC(=O)[C@H](CCC(=O)O)NC(=O)[C@H](C(C)C)NC(=O)[C@H](CC2CCCCC2)NC(=O)[C@H](CCN)NC1=O [Example 2744] ({CH2CO}-[Ala(morpholin-4-yl)][Phe(4-COOH)]D[Phe(3-CF3)][hPhe][Bip][Phe(4-COOH)][Orn][dL][Dab][Cha]VEC[Dab]-NH2; thioether N-14)
11,8.44,Cc1cccc(C[C@@H]2NC(=O)[C@H](CC(=O)O)NC(=O)[C@H](Cc3ccc(OCC(=O)O)cc3)NC(=O)[C@H](Cc3ccncc3)NC(=O)CSC[C@@H](C(=O)N[C@@H](CCN)C(N)=O)NC(=O)[C@H](CO)NC(=O)[C@H](C(C)(C)O)NC(=O)[C@H](CC3CCCCC3)NC(=O)[C@H](CCN)NC(=O)[C@@H](CC(C)C)NC(=O)[C@H](CCCN)NC(=O)[C@H](Cc3ccc(OCC(=O)O)cc3)NC(=O)[C@H](Cc3ccc(-c4ccccc4)cc3)NC(=O)[C@H](Cc3ccc(OCC(=O)O)cc3)NC2=O)c1 [Compound 2057] ({CH2CO}-[4Pal]Y(Carboxymethyl)D[Phe(3-Me)]Y(Carboxymethyl)[Bip]Y(Carboxymethyl)[Orn][dL][Dab][Cha][Val(3-OH)]SC[Dab]-NH2; thioether N-14)
12,8.05,Cc1cccc(C[C@@H]2NC(=O)[C@H](CC(=O)O)NC(=O)[C@H](Cc3ccc(C(=O)O)cc3)NC(=O)[C@H](Cc3ccncc3)NC(=O)CSC[C@@H](C(=O)N[C@H](CC(N)=O)C(N)=O)NC(=O)[C@H](CO)NC(=O)[C@H](C(C)C)NC(=O)[C@H](CC3CCCCC3)NC(=O)[C@H](CCN)NC(=O)[C@@H](CC(C)C)NC(=O)[C@H](CCCN)NC(=O)[C@H](Cc3ccc(O)cc3)NC(=O)[C@H](Cc3ccc(-c4ccccc4)cc3)NC(=O)[C@H](Cc3ccc(O)cc3)NC2=O)c1 [Compound 2286] ({CH2CO}-[4Pal][Phe(4-COOH)]D[Phe(3-Me)]Y[Bip]Y[Orn][dL][Dab][Cha]VSC[dN]-NH2; thioether N-14)
13,7.84,CC[C@@H]1NC(=O)[C@H](Cc2ccc(-c3ccccc3)cc2)NC(=O)[C@H](C(C)C)NC(=O)[C@H](Cc2cccc(C)c2)NC(=O)[C@H](CC(=O)O)NC(=O)[C@H](Cc2ccc(C(=O)O)cc2)NC(=O)[C@H](Cc2ccncc2)NC(=O)CSC[C@@H](C(=O)N[C@@H](C)C(N)=O)NC(=O)[C@H]([C@@H](C)O)NC(=O)[C@H](C(C)C)NC(=O)[C@H](CC2CCCCC2)NC(=O)[C@H](CCN)NC(=O)[C@@H](CC(C)C)NC(=O)[C@H](CCCN)NC1=O [Compound 1619]
14,8.41,Cc1cccc(C[C@@H]2NC(=O)[C@H](CC(=O)O)NC(=O)[C@H](Cc3ccc(C(=O)O)cc3)NC(=O)[C@H](Cc3ccsc3)NC(=O)CSC[C@@H](C(=O)N[C@@H](CCN)C(N)=O)NC(=O)[C@H](CO)NC(=O)[C@H](C(C)(C)O)NC(=O)[C@H](CC3CCCCC3)NC(=O)[C@H](CCN)NC(=O)[C@@H](CC(C)C)NC(=O)[C@H](CCCN)NC(=O)[C@H](Cc3ccc(C(=O)O)cc3)NC(=O)[C@H](Cc3ccc(-c4ccccc4)cc3)NC(=O)[C@H](Cc3ccc(OCC(=O)O)cc3)NC2=O)c1 [Compound 2660] ({CH2CO}-[3Thi][Phe(4-COOH)]D[Phe(3-Me)]Y(Carboxymethyl)[Bip][Phe(4-COOH)][Orn][dL][Dab][Cha][Val(3-OH)]SC[Dab]-NH2; thioether N-14)

# Source: US20250163104A1, “MACROCYCLIC IMMUNOMODULATORS” (priority 2021, published 2025)
